Assay type in all cases: in vivo, human
The subject of series [1] is multiple sclerosis. In words: Timed 25-foot walk test. The conditions noted are these: between-group difference p=0.02. From the text: (§1) Patients also underwent mammograms before and after the study.
Another clinical disability measure with treatment effects was the timed 25-foot walk test. This test measures how many seconds it takes to walk 25 feet, with higher scores indicating worse disability. […] This beneficial effect of estriol treatment on 25 foot walking times is consistent with the beneficial effect of estriol treatment on EDSS scores since the latter is weighted toward being an indicator of ambulation.

Series [2] relates to multiple sclerosis. As to the kind of experiment: Paced Auditory Serial Addition Test (PASAT) cognitive disability assessment. The settings on record: month 12 to month 24.
Text: as §1
Next it was shown that the improvement in PASAT cognitive test scores was sustained when subjects were followed for the entire 24 month period, p=0.02 (FIG. 3).

In series [3] the test system is multiple sclerosis. In words: Brain MRI gadolinium enhancing lesions. The settings on record: at month 12 compared to month 0 baseline, p=0.14.
Text: as §1
Brain MRI is used extensively in MS as a surrogate marker for clinical effects. Brain white matter gadolinium enhancing lesions are a biomarker for relapses.

In series [4] the test system is multiple sclerosis. In words: Expanded Disability Status Scale (EDSS).
Text: as §1
The Expanded Disability Status Scale (EDSS) is a standard composite disability score used in MS trials. Higher scores indicate worse disability. This composite covers a variety of disabilities (including ambulation, vision, cognition, coordination, etc.), but scoring is not linear, and the composite score is understood to be principally an indicator of the level of disability in ambulation.

The nature of series [5]: Safety and tolerability in randomized, double-blind, placebo-controlled clinical trial (gynecological outcomes, mammograms).
Text: as §1
Baseline characteristics were similar in both patient groups.

Where [6] appears, read: 24-month treatment, Copaxone with estriol or placebo.

For “glatiramer acetate [Copaxone® plus placebo]”, in series [1], the “Change of walk time in timed 25-foot walk test” value was “significantly increased”. The “PASAT scores after 12 months to end of study” value in series [2] was “began to show improved PASAT scores”. Also, in series [3], the “Reduction in number of subjects with brain MRI scans positive for enhancing lesions” value is 22%. Besides, the “Change in EDSS scores” value in series [4] (24 months (FIG. 4)) is “no change”. The “EDSS scores over 24 months, slope” value in series [4] (FIG. 4, p=0.06 estriol group, p=0.90 placebo group) is on record as −0.01. In series [5] (setting [6]), the “Abnormal proliferation in uterine endometrial biopsies” value was “no”, the “Breast - Fibrocystic breast disease on clinical exam” value is reported as 4 subjects, the “Uterine endometrial biopsies (exams)” value came out at 10 exams and the “Uterine endometrial thickness > 8 mm on ultrasound (subjects)” value is 27 subjects. Besides, the Mammograms entry in series [5] (before and after the study) is reported as “No breast”. Also, the “Uterine fibroids on ultrasound” value in series [5] (women with MS, 24-month treatment, Copaxone 20 mg/day with oral estriol 8 mg/day or placebo, norethindrone 0.7 mg/day for 14 days every three months) was 8 subjects.

The values above are taken from US10369158B2, “Pharmaceutical packaging for estriol therapy” (The Regents of the University of California, priority 2014, dated 2019).
